Results: patent US11597746B2, “Cyclic dinucleotides as sting agonists” (JANSSEN BIOTECH, INC., priority 2018, dated 2023)

Test system: human STING pathway in THP1-ISG cells
Assay: STING human cell reporter assay
Type: cell-based
Details: IRF-inducible SEAP reporter, 24 h

Row | SMILES | EC50 [nM]
1 | Nc1ncnc2c1ncn2[C@@H]1O[C@@H]2CNS(=O)(=O)O[C@H]3[C@@H](F)[C@H](n4cnc5c(N)ncnc54)O[C@@H]3COP(=O)(O)O[C@H]2[C@H]1F [Compound 1] | 160
2 | Nc1ncnc2c1ncn2[C@@H]1O[C@@H]2COP(=O)(O)O[C@H]3C[C@H](n4cnc5c(N)ncnc54)O[C@@H]3CNS(=O)(=O)O[C@H]2[C@H]1F [Compound 6] | 2940
3 | Nc1nc2c(ncn2[C@@H]2O[C@@H]3COP(=O)(O)O[C@H]4[C@@H](F)[C@H](n5cnc6c(N)ncnc65)O[C@@H]4CNS(=O)(=O)O[C@H]3[C@H]2OCc2ccccc2)c(=O)[nH]1 [Compound 46] | > 100000
4 | Nc1ncnc2c1ncn2[C@@H]1O[C@@H]2CNS(=O)(=O)O[C@H]3[C@H]4OO[C@]3(CO[P@@](=O)(S)O[C@H]2[C@H]1F)O[C@H]4n1cnc2c(N)ncnc21 [Compound 37-R] | 880
5 | Nc1ncnc2c1ncn2[C@@H]1O[C@@H]2CNS(=O)(=O)O[C@H]3[C@H]4OO[C@]3(CO[P@](=O)(S)O[C@H]2[C@H]1F)O[C@H]4n1cnc2c(N)ncnc21 [Compound 37-S] | 640
6 | Nc1ncnc2c1ncn2[C@@H]1O[C@@H]2CNS(=O)(=O)O[C@H]3C[C@H](n4cnc5cc(Cl)c(Cl)cc54)O[C@@H]3COP(=O)(O)O[C@H]2[C@H]1F [Compound 32] | 180
7 | Nc1ncnc2c1ncn2[C@@H]1O[C@@H]2CNS(=O)(=O)O[C@H]3C[C@H](n4cnc5c(=O)[nH]ncc54)O[C@@H]3COP(=O)(O)O[C@H]2[C@H]1F [Compound 43] | 730
8 | Nc1ncnc2c1ncn2[C@@H]1O[C@@H]2CNS(=O)(=O)O[C@H]3[C@@H](F)[C@H](n4cnc5c(N)ncnc54)O[C@@H]3CO[P@](=O)(S)O[C@H]2[C@H]1F [Compound 20-S] | 61800
9 | Nc1ncnc2c1ncn2[C@@H]1O[C@@H]2CNS(=O)(=O)O[C@H]3[C@@H](F)[C@H](n4cnc5c(N)ncnc54)O[C@@H]3CNS(=O)(=O)O[C@H]2[C@H]1F [Compound 47] | 290
10 | Nc1ncnc2c1ncn2[C@@H]1O[C@@H]2CNS(=O)(=O)O[C@H]3C[C@H](n4ncc5c(=O)[nH]cnc54)O[C@@H]3COP(=O)(O)O[C@H]2[C@H]1F [Compound 39] | > 100000
11 | Nc1ncnc2c1ncn2[C@@H]1O[C@@H]2CO[P@](=O)(S)O[C@H]3[C@@H](F)[C@H](n4cnc5c(=O)[nH]cnc54)O[C@@H]3COS(=O)(=O)O[C@H]2[C@H]1F (single isomer, unassigned) [Compound 22-S] | 97
12 | Nc1ncnc2c1ncn2[C@@H]1O[C@@H]2CO[P@@](=O)(S)O[C@H]3[C@@H](F)[C@H](n4cnc5c(=O)[nH]cnc54)O[C@@H]3COS(=O)(=O)O[C@H]2[C@H]1F (single isomer, unassigned) [Compound 22-R] | 29
13 | COc1ccc(CO[C@@H]2[C@@H]3OS(=O)(=O)NC[C@H]4O[C@@H](n5cnc6c(N)ncnc65)[C@H](F)[C@@H]4OP(=O)(O)OC[C@H]3O[C@H]2n2cnc3c(N)ncnc32)cc1 [Compound 15-R] | > 100000
14 | Nc1ncnc2c1ncn2[C@@H]1O[C@@H]2CNS(=O)(=O)O[C@H]3C[C@H](n4nnc5c(=O)[nH]cnc54)O[C@@H]3COP(=O)(O)O[C@H]2[C@H]1F [Compound 42] | 100000
15 | Nc1ncnc2c1ncn2[C@@H]1O[C@@H]2CNS(=O)(=O)O[C@H]3C[C@H](n4cnc5cncnc54)O[C@@H]3COP(=O)(O)O[C@H]2[C@H]1F [Compound 33] | 730
16 | Nc1ncnc2c1ncn2[C@@H]1O[C@@H]2CNS(=O)(=O)O[C@H]3C[C@H](n4cc(F)c5c(N)ncnc54)O[C@@H]3COP(=O)(O)O[C@H]2[C@H]1F [Compound 29] | > 100000
17 | Nc1ncnc2c1ncn2[C@@H]1O[C@@H]2CNS(=O)(=O)O[C@H]3[C@@H](F)[C@H](n4cnc5c(N)ncnc54)O[C@@H]3CO[P@](=O)(S)O[C@H]2[C@H]1F (single isomer, unassigned) [Compound 3] | 540
18 | Nc1ncnc2c1ncn2[C@@H]1O[C@@H]2COP(=O)(O)O[C@H]3[C@@H](F)[C@H](n4cnc5c(=O)[nH]cnc54)O[C@@H]3CNS(=O)(=O)O[C@H]2[C@H]1F [Compound 24] | 70
19 | Nc1ncnc2c1ncn2[C@H]1C[C@@H]2NS(=O)(=O)OC[C@H]3O[C@@H](n4cnc5c(=O)[nH]cnc54)[C@H](F)[C@@H]3OP(=O)(O)OC[C@H]2O1 [Compound 28] | 730

Results, then the molecule that gave them:

Row | EC50 [nM] | SMILES
20 | 980 | Nc1ncnc2c1ncn2[C@@H]1O[C@@H]2CNS(=O)(=O)O[C@H]3[C@@H](F)[C@H](n4cnc5c(=O)[nH]cnc54)O[C@@H]3CO[P@@](=O)(S)O[C@H]2[C@H]1F [Compound 17-R]
21 | > 100000 | Nc1nc2c(ncn2[C@@H]2O[C@@H]3CO[P@](=O)(S)O[C@H]4[C@@H](O)[C@H](n5cnc6c(N)ncnc65)O[C@@H]4CNS(=O)(=O)O[C@H]3[C@H]2F)c(=O)[nH]1 [Compound 14-S]
22 | 2650 | Nc1nc(N)c2ncn([C@@H]3O[C@@H]4COP(=O)(O)O[C@H]5[C@@H](F)[C@H](n6cnc7c(N)ncnc76)O[C@@H]5CNS(=O)(=O)O[C@H]4[C@H]3F)c2n1 [Compound 44]
23 | 1830 | Nc1nc2c(ncn2[C@@H]2O[C@@H]3CNS(=O)(=O)O[C@H]4[C@H](F)[C@H](n5cnc6c(N)ncnc65)O[C@@H]4CO[P@@](=O)(S)O[C@H]3[C@H]2F)c(=O)[nH]1 (single isomer, unassigned) [Compound 16-R]
24 | 64100 | CO[C@@H]1[C@@H]2OS(=O)(=O)NC[C@H]3O[C@@H](n4cnc5c(N)ncnc54)[C@H](F)[C@@H]3OP(=O)(O)OC[C@H]2O[C@H]1n1cnc2c(=O)[nH]c(N)nc21 [Compound 4]
25 | 20 | Nc1nc2c(ncn2[C@@H]2O[C@@H]3CNS(=O)(=O)O[C@H]4[C@H](F)[C@H](n5cnc6c(N)ncnc65)O[C@@H]4COP(=O)(O)O[C@H]3[C@H]2F)c(=O)[nH]1 [Compound 13]
26 | 6240 | Nc1nc2c(ncn2[C@@H]2O[C@@H]3COP(=O)(O)O[C@H]4[C@@H](O)[C@H](n5cnc6c(N)ncnc65)O[C@@H]4CNS(=O)(=O)O[C@H]3[C@H]2F)c(=O)[nH]1 [Compound 9]
27 | 12 | Nc1ncnc2c1ncn2[C@@H]1O[C@@H]2CNS(=O)(=O)O[C@H]3[C@@H](F)[C@H](n4cnc5c(N)ncnc54)O[C@@H]3CO[P@@](=O)(S)O[C@H]2[C@H]1F [Compound 2]
28 | 21100 | Nc1nc2c(ncn2[C@@H]2O[C@@H]3CO[P@](=O)(S)O[C@H]4[C@@H](F)[C@H](n5cnc6c(N)ncnc65)O[C@@H]4CNS(=O)(=O)O[C@H]3[C@H]2F)c(=O)[nH]1 (single isomer, unassigned) [Compound 18-S]
29 | 4.6 | Nc1nc2c(ncn2[C@@H]2O[C@@H]3CNS(=O)(=O)O[C@H]4[C@H](F)[C@H](n5cnc6c(N)ncnc65)O[C@@H]4CO[P@](=O)(S)O[C@H]3[C@H]2F)c(=O)[nH]1 (single isomer, unassigned) [Compound 16-S]
30 | 350 | Nc1ncnc2c1ncn2[C@@H]1O[C@@H]2CNS(=O)(=O)O[C@H]3[C@@H](F)[C@H](n4cnc5c(N)ncnc54)O[C@@H]3CO[P@@](=O)(S)O[C@H]2[C@H]1F [Compound 20-R]
31 | 4230 | Nc1ncnc2c1ncn2[C@@H]1O[C@@H]2CNS(=O)(=O)O[C@H]3[C@@H](F)[C@H](n4cnc5c(=O)[nH]cnc54)O[C@@H]3CO[P@](=O)(S)O[C@H]2[C@H]1F [Compound 17-S]
32 | 30 | Nc1nc2c(ncn2[C@@H]2O[C@@H]3COP(=O)(O)O[C@H]4[C@@H](F)[C@H](n5cnc6c(N)ncnc65)O[C@@H]4CNS(=O)(=O)O[C@H]3[C@@H]2F)c(=O)[nH]1 [Compound 26]
33 | 930 | Nc1ncnc2c1ncn2[C@@H]1O[C@@H]2CO[P@@](=O)(S)O[C@H]3[C@@H](F)[C@H](n4cnc5c(=O)[nH]cnc54)O[C@@H]3CNS(=O)(=O)O[C@H]2[C@H]1F (single isomer, unassigned) [Compound 31-R]
34 | 1830 | Nc1nc2c(ncn2[C@@H]2O[C@@H]3CO[P@@](=O)(S)O[C@H]4[C@@H](O)[C@H](n5cnc6c(N)ncnc65)O[C@@H]4CNS(=O)(=O)O[C@H]3[C@H]2F)c(=O)[nH]1 [Compound 14-R]
35 | 970 | Nc1ncnc2c1ncn2[C@@H]1O[C@@H]2CO[P@](=O)(S)O[C@H]3[C@@H](F)[C@H](n4cnc5c(=O)[nH]cnc54)O[C@@H]3CNS(=O)(=O)O[C@H]2[C@H]1F (single isomer, unassigned) [Compound 31-S]
36 | 23700 | Nc1nc2c(ncn2[C@@H]2O[C@@H]3CO[P@@](=O)(S)O[C@H]4[C@@H](F)[C@H](n5cnc6c(N)ncnc65)O[C@@H]4CNS(=O)(=O)O[C@H]3[C@@H]2F)c(=O)[nH]1 (single isomer, unassigned) [Compound 34-R]
37 | 93 | Nc1nc2c(ncn2[C@@H]2O[C@@H]3CO[P@@](=O)(S)O[C@H]4[C@@H](F)[C@H](n5cnc6c(N)ncnc65)O[C@@H]4CNS(=O)(=O)O[C@H]3[C@H]2F)c(=O)[nH]1 (single isomer, unassigned) [Compound 18-R]
38 | 47700 | Nc1nc2c(ncn2[C@@H]2O[C@@H]3CO[P@](=O)(S)O[C@H]4[C@@H](F)[C@H](n5cnc6c(N)ncnc65)O[C@@H]4CNS(=O)(=O)O[C@H]3[C@@H]2F)c(=O)[nH]1 (single isomer, unassigned) [Compound 34-S]

Molecular target: human STING (Homo sapiens (Human), UniProt Q86WV6, H232R)
Assay: STING SPA binding assay
Details: displacement of [3H]-2′3′-cGAMP from biotinylated recombinant STING (residues 139-379, H232R); read-out: hSTING SPA IC50

Sequence of human STING (Q86WV6 139-379 H232R): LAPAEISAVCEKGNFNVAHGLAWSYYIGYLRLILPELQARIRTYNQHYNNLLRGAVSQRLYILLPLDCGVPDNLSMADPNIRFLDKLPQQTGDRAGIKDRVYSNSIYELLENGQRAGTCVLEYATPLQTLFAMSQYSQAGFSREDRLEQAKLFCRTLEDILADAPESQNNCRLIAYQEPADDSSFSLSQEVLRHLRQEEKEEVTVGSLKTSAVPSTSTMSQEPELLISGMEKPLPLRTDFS

Row | IC50 [nM] | SMILES
39 | > 100000 | Nc1nc2c(ncn2[C@@H]2O[C@@H]3COP(=O)(O)O[C@H]4[C@@H](F)[C@H](n5cnc6c(N)ncnc65)O[C@@H]4CNS(=O)(=O)O[C@H]3[C@H]2OCc2ccccc2)c(=O)[nH]1 [Compound 46]
40 | > 100000 | COc1ccc(CO[C@@H]2[C@@H]3OS(=O)(=O)NC[C@H]4O[C@@H](n5cnc6c(N)ncnc65)[C@H](F)[C@@H]4OP(=O)(O)OC[C@H]3O[C@H]2n2cnc3c(N)ncnc32)cc1 [Compound 15-R]

Same assay, conditions: natural ligand

Row | SMILES | values in STING SPA binding assay
41 | Nc1nc2c(ncn2[C@@H]2O[C@@H]3COP(=O)(O)O[C@H]4[C@@H](O)[C@H](n5cnc6c(=O)[nH]c(N)nc65)O[C@@H]4COP(=O)(O)O[C@H]3[C@H]2O)c(=O)[nH]1 [cyclic-di-GMP, reference compound] | within the expected range
